Columns and labels:
[1] = molecular target: T1, human CYP17 in H295R adrenocortical carcinoma cells (Homo sapiens, UniProt P05093); assay: Cell-based human CYP17 inhibition assay, H295R cells; settings: 16 hours, read-out: CYP17 (human H295R adrenal cells)
T1 construct: H295R Adrenocortical carcinoma cells [NCI-H295A, ATCC Number CRL-2128, American Type Culture Collection; host or cells: H295R adrenocortical carcinoma cells
T1 sequence (P05093 1-508): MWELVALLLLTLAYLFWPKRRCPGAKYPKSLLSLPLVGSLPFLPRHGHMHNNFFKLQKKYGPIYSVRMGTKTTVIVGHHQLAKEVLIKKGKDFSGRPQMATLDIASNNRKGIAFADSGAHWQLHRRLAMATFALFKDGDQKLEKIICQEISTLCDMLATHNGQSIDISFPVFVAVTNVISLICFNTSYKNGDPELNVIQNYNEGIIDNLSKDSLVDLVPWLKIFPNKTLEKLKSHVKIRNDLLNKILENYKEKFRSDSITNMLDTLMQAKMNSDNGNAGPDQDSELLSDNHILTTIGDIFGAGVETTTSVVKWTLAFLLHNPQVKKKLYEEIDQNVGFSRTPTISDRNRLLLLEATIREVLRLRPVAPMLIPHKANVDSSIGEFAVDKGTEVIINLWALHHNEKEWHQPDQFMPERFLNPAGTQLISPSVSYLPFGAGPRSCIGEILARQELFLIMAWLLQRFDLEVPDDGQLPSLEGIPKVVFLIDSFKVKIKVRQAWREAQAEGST
Protocol: Cell-Based Human CYP17 Inhibition Assay
1. H295R Adrenocortical Carcinoma Cells and Growth Media: The media for the H295R Adrenocortical carcinoma cells [NCI-H295A, ATCC Number CRL-2128, American Type Culture Collection, Manassas, Va., US] (500 mL) was a DMEM:F12 Mix 1:1 with 5% (2 mL) BD Nu Serum; 1% (5 mL) ITS+Premix [BD Biosciences] and 1% Penstrep. 2. LNCap-CYP17 Cells and Growth Media: Full length hCYP17a1 gene (NCBI Reference Sequence: NM_000102.3) was cloned in pcDNA3.1(+) vector between HindIII and XhoI site. The pcDNA3.1(+) vector contains the Neomycin resistance gene and was used for selection of stable cell line. The hCYP17a1 containing pcDNA3.1(+) was transfected into LNCap cells to create the LNCap-CYP17 cell line. The media for the LNCaP-CYP17 cells was RPMI 1640, 10% FBS, 1% PenStrep, Geneticin 400 μg/mL.
The H295R cells or LNCaP-hCYP17 cells were subcultured and 30,000 cells per well were seeded in a poly-d lysine plate and incubated overnight at 37° C. The next day the media was removed and 200 μL of fresh media with ^3H3-17α-hydroxy-pregnenolone (1:1000) was added. 50 μL of serially diluted compounds from a 5× plate (5 times the final desired concentration) was added. The working concentration range for active, new compounds started from a high concentration of 10 μM with 3-fold serial dilutions generating up to 10 concentrations. The serial dilution in the 100× plate (in DMSO) and the stamping of a 5× plate (in media) from the 100× plate were carried out using a TECAN liquid handling device.
The plates were incubated overnight (16 hours) at 37° C. After 16 hours, the media was removed (approximately 220 μL) and an equal amount of chloroform was added, mixed and incubated for 30 minutes at 4 degrees. The plate was centrifuged at 4000 rpm for 15 minutes at 4° C., following which the top aqueous layer was carefully removed and added into a new deep well plate. An equal volume of activated 5% charcoal was added, mixed and incubated for 30 minutes at 4° C. The plate was then centrifuged at 4000 rpm for 15 minutes at 4° C. and the top layer carefully separated, avoiding any charcoal contamination, and placed in a white, clear bottom plate (plate cat #3610, Corning Life Sciences). An equal volume of Microscint™ 40 was added and mixed well. Following the incubation for 30 minutes, readings for the radiotracer were taken using a Microbeta® trilux.

[2] = molecular target: T2, rat CYP17 (rat testicular microsomes) (Rattus norvegicus, UniProt P11715); assay: CYP17 inhibition assay in rat testicular microsomes; type: biochemical
T2 construct: Rat testis tissue was collected and disrupted with 30 strokes of a glass homogenizer; from tissue; host or cells: rat testis (microsomes)
T2 sequence (P11715 1-507): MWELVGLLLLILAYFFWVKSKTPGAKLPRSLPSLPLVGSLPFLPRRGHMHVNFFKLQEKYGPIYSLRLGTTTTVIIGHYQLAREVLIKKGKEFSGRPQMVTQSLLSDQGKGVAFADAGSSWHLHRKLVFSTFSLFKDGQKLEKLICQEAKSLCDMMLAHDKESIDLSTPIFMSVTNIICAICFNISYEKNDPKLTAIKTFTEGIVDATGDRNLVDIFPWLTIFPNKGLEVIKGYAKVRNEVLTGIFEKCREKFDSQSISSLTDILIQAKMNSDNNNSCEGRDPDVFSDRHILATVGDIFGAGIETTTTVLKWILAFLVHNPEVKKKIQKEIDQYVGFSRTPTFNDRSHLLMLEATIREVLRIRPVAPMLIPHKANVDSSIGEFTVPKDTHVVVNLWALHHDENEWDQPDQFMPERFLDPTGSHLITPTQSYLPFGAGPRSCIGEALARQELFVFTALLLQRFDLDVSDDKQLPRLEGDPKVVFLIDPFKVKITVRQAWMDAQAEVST
Protocol: CYP17 Inhibition Assay in Rat Testicular Microsomes (Rat CYP17) or Yeast Microsome Overexpressing Human CYP17
1. NADPH (Sigma): A working stock was prepared by adding 25 μL of 6.5 mM NADPH in each tube. The final concentration of NADPH used in the assay was 325 μM.
2. Potassium Phosphate Buffer: One molar (1M) solutions of K2HPO4 and KH2PO4 were prepared. Eight mL of the 1 M KH2PO4 and 1.98 mL of the 1 M K2HPO4 were combined and the pH was adjusted to 7.4.
3. ^3H3-17α-hydroxypregnenolone (American Radiolabeled Chemicals, Inc., stock 1 μCi/μL): A 1:1 dilution of ^3H3-17α-hydroxypregnenolone in ethanol was prepared by combining 100 μL ^3H3-17α-hydroxypregnenolone+100 μL ethanol for one complete 96 well plate. For the reaction, 2 μL of the diluted ^3H3-17α-hydroxypregnenolone was added in each tube, i.e., 1 μCi/reaction. 4. Microsome Isolation Buffer: The microsome isolation buffer was prepared by combining 250 mM Sucrose, 5 mM EDTA, 10 mM Tris HCl, 4 mM DTT, and adjusting to pH 7.4. 5. TEG Buffer: The TEG buffer was prepared by combining 50 mM Tris HCl, 1 mM EDTA, and 20% Glycerol. 6. Rat Testicular Microsomes: Rat testis tissue was collected and disrupted with 30 strokes of a glass homogenizer on ice with 250 μL of microsome isolation buffer, followed by centrifugation at 10,000 g for 10 minutes at 4° C. The supernatant was collected and centrifuged at 100,000 g for 45 minutes at 4° C. The pellet was dissolved in TEG Buffer and the protein was quantified. The homogenized microsome samples were then frozen at −80° C. • 7. Yeast Microsomes which overexpress the human CYP17 enzyme were obtained from Premas Biotech, India.
Potassium phosphate buffer (470 μL) was prepared as described above and was added to each well of a deep well plate. The test compound was diluted using a TECAN liquid handler and 5 μL of diluted compound was transferred to each well (96 deep well/1 mL). A solution (25 μL) of 6.5 mM NADPH was added (final concentration of 325 μM in the assay). ^3H3-17α-hydroxypregnenolone (2 μL of the working stock) was added to each tube. The plates were then pre-incubated for 15 minutes at 37° C. Following the pre-incubation, either 5 μL rat testicular microsomes (150-160 μg) or 5 μL of yeast microsomes expressing human CYP17 (1.7 pmol), was added. Incubation was at 37° C. for 60 minutes in the presence of oxygen. The plates were then placed in ice and chloroform (500 μL) was added, mixed well and incubated at 4° C. for 20 minutes. The plates were then centrifuged at 1000 rpm for 15 minutes at 4° C.
A portion (300 μL) of the aqueous solution was collected and mixed with a 5% aqueous suspension of activated charcoal (300 μL). The plates were then incubated at 4° C. for 30 minutes, after which the plates were centrifuged at 1000 rpm for 15 minutes at 4° C. From this, 125 μL of the aqueous solution was collected and plated into a 96 well plate. Microscint™ 40 [125 μL, Perkin-Elmer; containing a mixture of a polymer based on alkylphenolethoxylate (20-40%), diethanolamine-phosphoric acid ester ammonium salt (10-20%), sodium dioctyl sulphosuccinate (2.5-10%), triethyl phosphate (2.5-10%), 3,6-dimethyl-4-octyne-3,6-diol (≦2.5%), a polymer based on nonylphenolethoxylate (≦2.5%), diisopropyl naphthalene isomers (40-60%), 2,5-diphenyloxazole (≦2.5%), and 9,10-dimethylanthracene] was added and mixed well. After 30 minutes of incubation, the samples were analyzed with a MicroBeta® Trilux microplate liquid scintillation counter and luminometer (Perkin-Elmer).

IC50 [1] [µM] | IC50 [2] [µM] | SMILES
0.05 to 0.2 | < 0.05 | CC(O)(c1ccncc1)c1ccc(-c2ccc(C#N)nc2)cn1 (stereo not shown) [Example 12, 6′-(1-Hydroxy-1-(pyridin-4-yl)ethyl)-[3,3′-bipyridine]-6-carbonitrile]
< 0.05 | < 0.05 | CC(O)(c1ccncc1)c1cc(-c2ccc(F)cc2)ns1 (stereo not shown) [Example 48, 1-(3-(4-fluorophenyl)isothiazol-5-yl)-1-(pyridin-4-yl)ethanol]
0.201 to 10 | 0.05 to 0.2 | CC(=O)NC(C)(c1ccncc1)c1cnc(-c2ccc(F)cc2)s1 (stereo not shown) [Example 69, N-(1-(2-(4-Fluorophenyl)thiazol-5-yl)-1-(pyridin-4-yl)ethyl)acetamide]
0.05 to 0.2 | 0.05 to 0.2 | CC(O)(c1ccncc1)c1ccc(-c2ccc(F)cc2)o1 (stereo not shown) [Example 37, 1-(5-(4-fluorophenyl)furan-2-yl)-1-(pyridin-4-yl)ethanol]
0.201 to 10 | 0.05 to 0.2 | Cn1cc(-c2ccc(C(C)(O)c3ccncc3)o2)ccc1=O (stereo not shown) [Example 58, 5-(5-(1-hydroxy-1-(pyridin-4-yl)ethyl)furan-2-yl)-1-methylpyridin-2(1H)-one]
< 0.05 | < 0.05 | CC(O)(c1ccncc1)c1cc(-c2ccc(F)cc2)sn1 (stereo not shown) [Example 63, 1-(5-(4-fluorophenyl)isothiazol-3-yl)-1-(pyridin-4-yl)ethanol]
0.05 to 0.2 | < 0.05 | CC(O)(c1ccncc1)c1cnc(-c2ccc(Cl)c(C(F)(F)F)c2)s1 (stereo not shown) [Example 39, 1-(2-(4-chloro-3-(trifluoromethyl)phenyl)thiazol-5-yl)-1-(pyridin-4-yl)ethanol]
– | < 0.05 | CC(=O)OC(C)(c1ccncc1)c1cnc(-c2ccc(F)cc2)s1 (stereo not shown) [Example 65, 1-(2-(4-Fluorophenyl)thiazol-5-yl)-1-(pyridin-4-yl)ethyl acetate]
– | 0.201 to 10 | CCC(O)(c1ccncc1)c1cnc(-c2cn[nH]c2)s1 (single isomer, unassigned; (+)) [Example 20, (+)-1-[2-(1H-pyrazol-4-yl)-1,3-thiazol-5-yl]-1-pyridin-4-ylpropan-1-ol]

The remaining lines, values behind:

SMILES | IC50 [1] [µM] | IC50 [2] [µM]
CC(O)(c1ccncc1)c1ncc(-c2ccc(F)cc2)s1 (single isomer, unassigned; (-)) [Example 54, (−)-1-(5-(4-fluorophenyl)thiazol-2-yl)-1-(pyridin-4-yl)ethanol] | < 0.05 | < 0.05
CCC(O)(c1ccncc1)c1cnc(-c2cn[nH]c2)s1 (stereo not shown) [Example 18, 1-(2-(1H-Pyrazol-4-yl)thiazol-5-yl)-1-(pyridin-4-yl)propan-1-ol] | < 0.05 | < 0.05
CC(C)C(O)(c1ccncc1)c1cnc(-c2ccc(F)cc2)s1 (stereo not shown) [Example 33, 1-[2-(4-Fluoro-phenyl)-thiazol-5-yl]-2-methyl-1-pyridin-4-yl-propan-1-ol] | < 0.05 | < 0.05
CC(O)(c1ccncc1)c1nsc(-c2ccc(F)cc2)n1 (stereo not shown) [Example 53, 1-(5-(4-fluorophenyl)-1,2,4-thiadiazol-3-yl)-1-(pyridin-4-yl)ethanol] | 0.201 to 10 | 0.05 to 0.2
CCC(=O)OC(C)(c1ccncc1)c1cnc(-c2ccc(F)cc2)s1 (stereo not shown) [Example 66, 1-(2-(4-fluorophenyl)thiazol-5-yl)-1-(pyridin-4-yl)ethyl propionate] | – | < 0.05
CC(O)(c1ccncc1)c1cnc(-c2ccccc2)s1 (stereo not shown) [Example 51, 1-(2-phenylthiazol-5-yl)-1-(pyridin-4-yl)ethanol] | < 0.05 | < 0.05
CC(O)(c1ccncc1)c1cnc(-c2ccc(F)c(Cl)c2)s1 (stereo not shown) [Example 46, 1-(2-(3-chloro-4-fluorophenyl)thiazol-5-yl)-1-(pyridin-4-yl)ethanol] | < 0.05 | < 0.05
CC(O)(c1ccncc1)c1cnc(-c2ccc(F)nc2)s1 (stereo not shown) [Example 22, 1-(2-(6-Fluoropyridin-3-yl)thiazol-5-yl)-1-(pyridin-4-yl)ethanol] | – | 0.201 to 10
CCCC(=O)OC(C)(c1ccncc1)c1cnc(-c2ccc(F)cc2)s1 (stereo not shown) [Example 67, 1-(2-(4-fluorophenyl)thiazol-5-yl)-1-(pyridin-4-yl)ethyl butyrate] | – | < 0.05

From US8809372B2, “Pyridine derivatives” (Endo Pharmaceuticals, Inc., priority 2011, dated 2014)
